#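 Briefly, cells in 96-well plates were exposed to five compound concentrations for 48 h, and endpoints were estimated by linear interpolation. Here, GI50 denotes the concentration required for 50% inhibition of growth. At the TGI there is no net growth.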 Where a SMILES comes first, the peptide text is derived from it. The star is where a group is joined. Boc = CC(C)(C)OC(=O)*
# Tests used:
# Assay in all cases: NCI anticancer screen, dose series, 48 h
# [1] = system: SK-MEL-28 melanoma
# [2] = system: TK-10 renal
# [3] = system: NCI-H23 lung
# [4] = system: NCI-H226 lung
# [5] = system: BT-549 breast
# [6] = system: MCF7 breast
# [7] = system: A498 renal
# [8] = system: CCRF-CEM leukemia
# [9] = system: SK-MEL-5 melanoma
# [10] = system: SF-295 CNS
# [11] = system: RPMI-8226 leukemia
# [12] = system: HOP-62 NSCLC
# [13] = system: COLO 205 colon
# [14] = system: SW-620 colon
# [15] = system: A549 NSCLC
# [16] = system: PC-3 prostate
# [17] = system: SF-539 CNS
# [18] = system: CAKI-1 renal
# [19] = system: OVCAR-8 ovarian
# [20] = system: OVCAR-4 ovarian
# [21] = system: NCI-H460 lung
# [22] = system: HOP-92 NSCLC
# [23] = system: 786-0 renal
# [24] = system: MALME-3M melanoma
# [25] = system: SR leukemia
# [26] = system: ACHN renal
# [27] = system: UO-31 renal
# [28] = system: UACC-257 melanoma
# [29] = system: MDA-MB-231 breast
# [30] = system: UACC-62 melanoma
# [31] = system: IGROV1 ovarian
# [32] = system: OVCAR-3 ovarian
# [33] = system: DU-145 prostate
# [34] = system: NCI-H522 lung
# [35] = system: HCT-15 colon
# [36] = system: MOLT-4 leukemia
# [37] = system: SNB-19 CNS
# [38] = system: K-562 leukemia
# [39] = system: SK-OV-3 ovarian
# [40] = system: HT29 colon
# [41] = system: SK-MEL-2 melanoma
# [42] = system: MDA-MB-435
# [43] = system: M14 melanoma
# [44] = system: KM12 colon
# [45] = system: OVCAR-5 ovarian
# [46] = system: HCC-2998 colon
# [47] = system: RXF 393 renal
# [48] = system: SN12C renal
# [49] = system: SNB-75 CNS
# [50] = system: HCT-116 colon
# [51] = system: EKVX NSCLC
# [52] = system: HS 578T breast
# [53] = system: T-47D breast
# [54] = system: HL-60(TB) leukemia
# [55] = system: U251 CNS
# [56] = system: NCI/ADR-RES ovarian
# [57] = system: LOX IMVI melanoma
# [58] = system: SF-268 CNS
# [59] = system: MDA-N
smiles,measurement,setting,value
O=C1NC(=O)C(c2cccc(Cl)c2)=C1Nc1ccc(Cl)c(C(=O)O)c1,GI50,[1],> 25 µM
same,TGI,[1],> 25 µM
same,GI50,[2],> 25 µM
same,TGI,[2],> 25 µM
same,GI50,[3],> 25 µM
same,TGI,[3],> 25 µM
same,GI50,[4],> 25 µM
same,TGI,[4],> 25 µM
same,GI50,[5],> 25 µM
same,TGI,[5],> 25 µM
same,GI50,[6],> 25 µM
same,TGI,[6],> 25 µM
same,GI50,[7],> 25 µM
same,TGI,[7],> 25 µM
same,GI50,[8],> 25 µM
same,TGI,[8],> 25 µM
same,GI50,[9],> 25 µM
same,TGI,[9],> 25 µM
same,GI50,[10],> 25 µM
same,TGI,[10],> 25 µM
same,GI50,[11],> 25 µM
same,TGI,[11],> 25 µM
same,GI50,[12],> 25 µM
same,TGI,[12],> 25 µM
same,GI50,[13],> 25 µM
same,TGI,[13],> 25 µM
same,GI50,[14],> 25 µM
same,TGI,[14],> 25 µM
same,GI50,[15],> 25 µM
same,TGI,[15],> 25 µM
same,GI50,[16],> 25 µM
same,TGI,[16],> 25 µM
same,GI50,[17],> 25 µM
same,TGI,[17],> 25 µM
same,GI50,[18],> 25 µM
same,TGI,[18],> 25 µM
same,GI50,[19],> 25 µM
same,TGI,[19],> 25 µM
same,GI50,[20],> 25 µM
same,TGI,[20],> 25 µM
same,GI50,[21],> 25 µM
same,TGI,[21],> 25 µM
same,GI50,[22],> 25 µM
same,TGI,[22],> 25 µM
same,GI50,[23],> 25 µM
same,TGI,[23],> 25 µM
same,GI50,[24],> 25 µM
same,TGI,[24],> 25 µM
same,GI50,[25],> 25 µM
same,TGI,[25],> 25 µM
same,GI50,[26],> 25 µM
same,TGI,[26],> 25 µM
same,GI50,[27],> 25 µM
same,TGI,[27],> 25 µM
same,GI50,[28],> 25 µM
same,TGI,[28],> 25 µM
same,GI50,[29],> 25 µM
same,TGI,[29],> 25 µM
same,GI50,[30],> 25 µM
same,TGI,[30],> 25 µM
same,GI50,[31],> 25 µM
same,TGI,[31],> 25 µM
same,GI50,[32],> 25 µM
same,TGI,[32],> 25 µM
same,GI50,[33],> 25 µM
same,TGI,[33],> 25 µM
same,GI50,[34],> 25 µM
same,TGI,[34],> 25 µM
same,GI50,[35],> 25 µM
same,TGI,[35],> 25 µM
same,GI50,[36],> 25 µM
same,TGI,[36],> 25 µM
same,GI50,[37],> 25 µM
same,TGI,[37],> 25 µM
same,GI50,[38],> 25 µM
same,TGI,[38],> 25 µM
same,GI50,[39],> 25 µM
same,TGI,[39],> 25 µM
same,GI50,[40],> 25 µM
same,TGI,[40],> 25 µM
same,GI50,[41],> 25 µM
same,TGI,[41],> 25 µM
same,GI50,[42],> 25 µM
same,TGI,[42],> 25 µM
same,GI50,[43],> 25 µM
same,TGI,[43],> 25 µM
same,GI50,[44],> 25 µM
same,TGI,[44],> 25 µM
same,GI50,[45],> 25 µM
same,TGI,[45],> 25 µM
same,GI50,[46],> 25 µM
same,TGI,[46],> 25 µM
same,GI50,[47],> 25 µM
same,TGI,[47],> 25 µM
same,GI50,[48],> 25 µM
same,TGI,[48],> 25 µM
same,GI50,[49],> 25 µM
same,TGI,[49],> 25 µM
same,GI50,[50],> 25 µM
same,TGI,[50],> 25 µM
same,GI50,[51],> 25 µM
same,TGI,[51],> 25 µM
same,GI50,[52],> 25 µM
same,TGI,[52],> 25 µM
same,GI50,[53],> 25 µM
same,TGI,[53],> 25 µM
same,GI50,[54],> 25 µM
same,TGI,[54],> 25 µM
same,GI50,[55],> 25 µM
same,TGI,[55],> 25 µM
same,GI50,[56],> 25 µM
same,TGI,[56],> 25 µM
same,GI50,[57],> 25 µM
same,TGI,[57],> 25 µM
same,GI50,[58],> 25 µM
same,TGI,[58],> 25 µM
Cc1cc(S(=O)(=O)Nc2nc3cscc3c(=O)n2N)c(S)cc1Cl,TGI,[1],> 100 µM
same,TGI,[2],> 100 µM
same,TGI,[3],> 100 µM
same,TGI,[4],48.5 µM
same,TGI,[5],> 100 µM
same,TGI,[6],> 100 µM
same,TGI,[8],> 100 µM
same,TGI,[9],> 100 µM
same,TGI,[10],> 100 µM
same,TGI,[11],> 100 µM
same,TGI,[12],> 100 µM
same,TGI,[13],> 100 µM
same,TGI,[14],> 100 µM
same,TGI,[15],> 100 µM
same,TGI,[16],> 100 µM
same,TGI,[17],> 100 µM
same,TGI,[18],> 100 µM
same,TGI,[19],> 100 µM
same,TGI,[20],> 100 µM
same,TGI,[21],> 100 µM
same,TGI,[23],> 100 µM
same,TGI,[24],90.4 µM
same,TGI,[26],> 100 µM
same,TGI,[28],> 100 µM
same,TGI,[29],> 100 µM
same,TGI,[30],> 100 µM
same,TGI,[31],> 100 µM
same,TGI,[32],> 100 µM
same,TGI,[33],> 100 µM
same,TGI,[34],77.9 µM
same,TGI,[35],> 100 µM
same,TGI,[36],> 100 µM
same,TGI,[37],> 100 µM
same,TGI,[38],> 100 µM
same,TGI,[39],> 100 µM
same,TGI,[40],> 100 µM
same,TGI,[41],> 100 µM
same,TGI,[42],> 100 µM
same,TGI,[43],> 100 µM
same,TGI,[44],> 100 µM
same,TGI,[45],64 µM
same,TGI,[46],> 100 µM
same,TGI,[59],> 100 µM
same,TGI,[48],> 100 µM
same,TGI,[49],58.5 µM
same,TGI,[50],> 100 µM
same,TGI,[51],> 100 µM
same,TGI,[54],> 100 µM
same,TGI,[55],> 100 µM
same,TGI,[56],73.4 µM
same,TGI,[57],> 100 µM
same,TGI,[58],> 100 µM
COC(=O)C(Cc1c[nH]c2ccccc12)NC(=O)C(Cc1c[nH]c2ccccc12)NC(=O)C(Cc1c[nH]c2ccccc12)NC(=O)C(Cc1c[nH]c2ccccc12)NC(=O)C(Cc1c[nH]c2ccccc12)NC(=O)C(Cc1c[nH]c2ccccc12)NC(=O)C(Cc1c[nH]c2ccccc12)NC(=O)OC(C)(C)C (stereo unspecified) (Boc-WWWWWWW-OMe; configuration not given here),TGI,[1],> 100 µM
same,TGI,[2],> 100 µM
same,TGI,[3],> 100 µM
same,TGI,[4],> 100 µM
same,TGI,[5],> 100 µM
same,TGI,[6],> 100 µM
same,TGI,[8],> 100 µM
same,TGI,[9],> 100 µM
same,TGI,[11],> 100 µM
same,TGI,[12],> 100 µM
same,TGI,[14],> 100 µM
same,TGI,[15],> 100 µM
same,TGI,[16],> 100 µM
same,TGI,[18],> 100 µM
same,TGI,[19],> 100 µM
same,TGI,[20],> 100 µM
same,TGI,[21],> 100 µM
same,TGI,[23],> 100 µM
same,TGI,[24],> 100 µM
same,TGI,[25],> 100 µM
same,TGI,[26],> 100 µM
same,TGI,[27],> 100 µM
same,TGI,[28],> 100 µM
same,TGI,[29],> 100 µM
same,TGI,[30],> 100 µM
same,TGI,[31],> 100 µM
same,TGI,[32],> 100 µM
same,TGI,[33],> 100 µM
same,TGI,[34],> 100 µM
same,TGI,[35],> 100 µM
same,TGI,[36],> 100 µM
same,TGI,[37],> 100 µM
same,TGI,[38],> 100 µM
same,TGI,[40],> 100 µM
same,TGI,[41],87.9 µM
same,TGI,[42],> 100 µM
same,TGI,[43],58.9 µM
same,TGI,[45],> 100 µM
same,TGI,[46],> 100 µM
same,TGI,[59],> 100 µM
same,TGI,[48],> 100 µM
same,TGI,[49],> 100 µM
same,TGI,[50],> 100 µM
same,TGI,[53],> 100 µM
same,TGI,[54],> 100 µM
same,TGI,[55],> 100 µM
same,TGI,[57],> 100 µM
same,TGI,[58],> 100 µM

# From PubChem BioAssay (NCI)
